According to patent US10426772B2, “Use of ergot alkaloids as an anthelmintic agent” (priority 2016, dated 2019):

Tests used:
[1] = system: S. mansoni; assay: Curative efficacy against schistosome infection in mice; format: in vivo, Schistosoma mansoni; conditions: one week
Procedure: Assays testing the curative efficacy of compounds against schistosome infection were performed on mice 6 weeks after exposure to cerceria. Drugs were dosed as follows. Ergotamine (95 mg/kg) was solubilized in 50 μL DMSO and diluted in 200 μL trappsol-saline and delivered by intraperitoneal injection twice a day for one week. Praziquantel (50 mg/kg) was similarly solubilized and injected intraperitoneally once a day for one week. The negative control cohort was given twice daily injections of DMSO (50 μL) added to 200 μL trappsol-saline solution. Mice were weighed and euthanized at 49 days post infection. Worms were harvested and counted as in the hepatic shift assay. Spleen and livers were weighed, and a segment of intestine was excised from the most distal region of the rectum to 10 cm above the cecum. The small and large intestines were separated by cutting immediately above and below the cecum. Each was cut lengthwise to expose the lumen and thoroughly washed in NaCl (1.2%) to remove excrement. Intestines were laid flat with the intestinal mucosa facing upwards and clamped between two glass plates to allow visual inspection of eggs using a stereo microscope.
Mice were injected with vehicle control (dmso), the current frontline anthelmintic (praziquantel) or ergotamine twice daily for one week at starting 42 days post infection.
All animals were sacrificed 49 days post infection, and worms were harvested by dissection of the mesenteric vasculature, portal vein and liver. […] Schistosomes lay large numbers of eggs within the host mesenteric system, and these progress through stages of development over approximately 5 days which can be scored looking at samples of the intestinal mucosa (Pellegrino et al., 1965). Therefore, it is possible to visually determine whether drug treatment has arrested parasite egg laying by observing a lack of developing eggs. Sections of both the large and small intestines were examined and eggs were manually counted and scored according to developmental stage (representative stages of embryo development shown in FIG. 20H-I, top).

[2] = system: S. mansoni; assay: Hepatic shift assay in infected mice; format: in vivo, Schistosoma mansoni; conditions: intraperitoneal, ergotamine 95, praziquantel 100, methylergometrine 50, lisuride 10, dihydroergotoxine 60 mg/kg, euthanized three hours later
Procedure: Female Swiss Webster mice were exposed to 200 S. mansoni cerceria (NMRI strain) at between 4-6 weeks old. For hepatic shift assays, infections were allowed to mature to 7 weeks, at which point mice were given test compounds by intraperitoneal injection and euthanized […]. Compounds were solubilized in 50 μL DMSO, and diluted in 200 μL 5% w/v trappsol (Cyclodextrin Technologies Development, THPB-p-31 g)+saline (NaCl 0.9%) solution. Immediately after being euthanized, mice were dissected to remove the liver from the portal vein, and the number of worms recovered from the portal vein, mesenteries and liver was recorded for each mouse.
Several experiments using a murine model of schistosomiasis were carried out in order to test the anthelmintic efficacy of Sm.5HTR ligands in vivo. First, the acute effect of drugs were assessed using a “heptic-shift” assay; mature parasites normally reside within the mesenteric vasculature, and upon exposure to anthelmintics they dislodge and are swept to the liver^12,13 where they may be cleared from the host^14 (FIG. 20B-F).
Given that the current anthelmintic therapy, praziquantel, disrupts worms and results in a rapid shift from the mesenteric vasculature to the liver (Melhorn et al., 1981) (FIG. 20B-F), it was hypothesized that Sm.5HTR ligands that disrupt parasite movement would cause a similar hepatic shift. Compounds were delivered by intraperitoneal injection and mice were euthanized three hours later in order to quantify the number of worms found in the mesentaries, portal vein or liver.

[3] = target: Sm.5HTR (Schistosoma mansoni, UniProt G4V5G4); format: cell-based
Procedure: (§1) HEK293 cells (ATCC CRL-1573.3) were cultured in DMEM supplemented with 10% fetal bovine serum (FBS), penicillin (100 units/mL), streptomycin (100 μg/mL), and L-glutamine (290 μg/mL). Cells were transiently transfected (ViaFect, Promega) as per the manufacturer's protocol at a density of 2×10^6 cells per T-25 cell-culture flask. Cells were transfected with plasmids encoding GloSensor (Promega) and either Sm.5HTR, (Smp_126730, GenBank accession number KF444051.1) or Sm.5HTRL (KX150867), both GPCRs being codon optimized for mammalian expression, or Hs.5HT7a (GenBank accession number NM_000872.4, R&D Systems) subcloned into pCS2(−). Cell culture reagents were from Invitrogen. Epitope tagged constructs were used to verify expression, and untagged constructs used for all luminescence assays.
(§2) For assays performed on adherent cells, HEK-293 cells were transferred one day post transfection to 96 well, solid white plates (Corning, cat #3917) coated with 0.01% poly-L-lysine (Sigma Aldrich) at a density of 5×10^4 cells/well in DMEM supplemented with 1% dialyzed FBS (Gibco). After overnight culture (37° C./5% CO2), media was decanted and replaced with 100 μL/well HBSS supplemented with 0.1% BSA, 20 mM HEPES (pH 7.4) and GloSensor™ reagent. Plates were allowed to equilibrate at room temperature for two hours prior to performing luminescence assays (GloMax-Multi Detection System plate reader, Promega). Conditions for individual assays were described as per figure legends. The standard assay to detect changes in cAMP utilized the F22 sensor in media supplemented with IBMX (200 μM). Ligands were added at a concentration of 20× per well for experiments (i.e., 5 μl of drug solution added to 100 μL of cells). […] For the resazurin reduction assay for cellular viability, cells were incubated with resazurin (final concentration, 10 μM) and tested ligands with fluorescence measurements (560 nm excitation/590 nm emission) made at 1.5 hours intervals.
(§3) The protocol for screening is shown schematically in FIG. 5A. HEK293 cells transiently transfected with either the human 5HT7 receptor (Hs.5HT7R) or the schistosome receptor (Sm.5HTR) were exposed to test ligands in a 96-well plate format. […] Luminescence was then read at a fixed time point (t=60 minutes, FIG. 5A). Hits were assigned as compounds that evoked a ≥50% decrease in luminescence output at the fixed time sampling point (FIG. 5B).

[4] = target: Sm.5HTRL (Schistosoma mansoni, UniProt A0A173FEI8); assay: GloSensor cAMP assay, HEK293 cells transiently transfected with Sm.5HTRL; format: cell-based; conditions: antagonists 10 μM; 5-HT EC80 dose 0.8 μM (FIG. 8)
Procedure: as §1, §2

[5] = system: adult schistosomes; assay: Adult schistosome mobility assay (Example 1); format: cell-based, Schistosoma mansoni
[6] = system: S. mansoni schistosomules; assay: Schistosomule contractility assay; format: cell-based; conditions: Schistosoma mansoni, read-out: IC50, inhibition of 5-HT evoked contractions
Procedure: FIGS. 14A-14F. […] Effects of selected ligands on schistosomules. […] A contractile cycle is defined when a deviation of ≥20% of the average body length (dashed lines) occurs.
Biomphalaria glabrata (M-line) snails exposed to Schistosoma mansoni miracidia (Strain PR-1) were obtained from BEI Resources (Cat. number NR-21961) and cercaria were shed following exposure to light (1.5 hours). Cercaria were manually transformed into schistosomula by vortexing (3×45 seconds, each separated by 3 minutes on ice) and tails were removed by gradient centrifugation (24 mL Percoll, 4 mL 10×EMEM, 1.5 ml penicillin-streptomycin, 1 mL of 1M HEPES in 0.85% NaCl, 9.5 ml distilled water) at 500 g/15 minutes at 4° C. Supernatant containing tails was discarded, and schistosomules were resuspended in Basch media and incubated (37° C., 5% CO2) overnight before conducting mobility assays. For contractility experiments, somules were incubated in 5-HT free Basch media to resolve a basal contractility rate. […] Schistosomules were incubated in 24 well plates (about 200 schistosomules/0.5 mL media per well) for 30 minutes (37° C./5% CO2) prior to acquiring videos of schistosome movement (1 minute recordings/well) using a Nikon Coolpix 5700 camera affixed to a Nikon Eclipse TS100 microscope (10× objective). The WrmTrck plugin for ImageJ was used to quantify worm mobility (El-Shehabi et al., 2012). Briefly, the major axis of each schistosomule body length was extracted from the raw output of WrmTrck and an average length was determined for the duration of the recording. Contractions were quantified by determining the number of episodes during which the worm body length deviated from the average by over 20%. S. mansoni protocols were approved by the Iowa State University Institutional Biosafety Committee.

[7] = target: T1, Hs.5HT7R (Homo sapiens, UniProt P34969); assay: GloSensor cAMP assay, HEK293 cells transiently transfected with Hs.5HT7R; format: cell-based
T1 construct: host or cells: HEK293 (ATCC CRL-1573.3), transient, pCS2(−), co-transfected with GloSensor
Procedure: as §1, §2, §3

Chain of Sm.5HTR (G4V5G4 entry or part of it): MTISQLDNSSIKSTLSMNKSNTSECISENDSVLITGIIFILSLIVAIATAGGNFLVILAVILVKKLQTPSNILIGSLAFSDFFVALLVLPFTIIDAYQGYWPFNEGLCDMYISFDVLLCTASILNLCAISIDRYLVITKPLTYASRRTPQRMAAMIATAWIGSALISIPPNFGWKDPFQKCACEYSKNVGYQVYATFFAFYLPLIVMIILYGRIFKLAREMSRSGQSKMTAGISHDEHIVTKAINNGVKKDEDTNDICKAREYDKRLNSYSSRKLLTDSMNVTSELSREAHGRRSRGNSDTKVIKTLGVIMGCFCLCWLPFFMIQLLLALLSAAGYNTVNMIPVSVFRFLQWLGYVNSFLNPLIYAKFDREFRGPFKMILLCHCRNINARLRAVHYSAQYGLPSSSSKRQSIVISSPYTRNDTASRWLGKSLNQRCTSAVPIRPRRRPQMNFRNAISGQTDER
T1 sequence (P34969 1-445 isoform P34969-2): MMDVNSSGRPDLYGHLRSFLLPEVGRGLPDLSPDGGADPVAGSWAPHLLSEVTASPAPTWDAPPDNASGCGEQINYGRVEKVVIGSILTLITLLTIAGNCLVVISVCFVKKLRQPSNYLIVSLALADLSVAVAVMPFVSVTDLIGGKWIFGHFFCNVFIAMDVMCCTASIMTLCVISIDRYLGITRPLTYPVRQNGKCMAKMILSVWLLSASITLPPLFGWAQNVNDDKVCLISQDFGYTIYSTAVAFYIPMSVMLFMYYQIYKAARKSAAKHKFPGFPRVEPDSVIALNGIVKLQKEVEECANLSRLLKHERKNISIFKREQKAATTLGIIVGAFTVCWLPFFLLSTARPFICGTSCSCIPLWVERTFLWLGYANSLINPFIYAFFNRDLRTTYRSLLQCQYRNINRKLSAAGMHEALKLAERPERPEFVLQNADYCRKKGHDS
Chain of Sm.5HTRL (A0A173FEI8 entry or part of it): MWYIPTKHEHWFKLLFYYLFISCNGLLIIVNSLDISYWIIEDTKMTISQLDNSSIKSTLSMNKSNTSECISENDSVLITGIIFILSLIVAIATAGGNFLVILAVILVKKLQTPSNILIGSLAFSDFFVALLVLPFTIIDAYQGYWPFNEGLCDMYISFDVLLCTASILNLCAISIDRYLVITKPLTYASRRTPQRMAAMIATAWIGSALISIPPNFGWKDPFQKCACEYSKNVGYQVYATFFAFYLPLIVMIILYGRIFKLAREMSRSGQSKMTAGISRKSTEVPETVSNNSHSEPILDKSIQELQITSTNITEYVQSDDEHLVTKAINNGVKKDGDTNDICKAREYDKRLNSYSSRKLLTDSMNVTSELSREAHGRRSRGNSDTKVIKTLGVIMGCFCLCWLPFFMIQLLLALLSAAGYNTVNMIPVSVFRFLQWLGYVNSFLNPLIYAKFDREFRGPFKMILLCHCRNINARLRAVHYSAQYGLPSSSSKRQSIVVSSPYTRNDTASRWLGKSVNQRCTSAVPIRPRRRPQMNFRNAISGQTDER

## O=C(C1CCCCC1)N1CC(=O)N2CCc3ccccc3C2C1 (stereo not shown) [PZQ, praziquantel]
[1]; infected mice, praziquantel 50 mg/kg i.p. once a day
  protection from liver and spleen enlargement: no significant protection from liver and spleen enlargement
[1]; mice, ergotamine 95 mg/kg twice a day, praziquantel 50 mg/kg once a day, i.p., versus vehicle control
  decrease in intestinal egg counts: 99%
[2]
  % of worm burden found in the liver: 68.8±14.1%
[3]; doses that would convey an antiparasitic effect, FIGS. 10A and E
  modulation of Sm.5HTR receptor activity: did not reveal any modulation of receptor activity

## COc1cc2c(cc1OC)[C@@H]1Cc3ccc(OC)c(OC)c3CN1CC2 [rotundine]
[4]
  inhibition of 5-HT evoked cAMP generation through Sm.5HTRL: inhibited 5-HT evoked cAMP generation through Sm.5HTRL
[5]; 5-HT 100 μM, male and female worms (FIG. 15G-I)
  effect on 5-HT stimulated movement of adult worms: inhibited the 5-HT evoked increases in worm movement
[5]; no 5-HT, male and female worms (FIG. 15D-F)
  effect on basal movement of adult worms: markedly inhibited worm movements at rest
[6]
  IC50: ≤ 1000 nM
[3]; antagonism of 5-HT evoked cAMP, FIGS. 7, 12, 13
  selectivity Sm.5HTR versus Hs.5HT7R (IC50 (Hs.5HT7R)/IC50 (Sm.5HTR)), in words: clear selectivity for Sm.5HTR
[3]; inhibition of cAMP generation
  potency (IC50) at Sm.5HTR, lower right quadrant of FIG. 13: sub-μM potency
[3]; read-out: IC50, antagonism of 5-HT evoked cAMP generation at Sm.5HTR, 5-HT at EC80, F22 sensor, IBMX
  IC50: 701 ± 207 nM
[7]; concentrations up to 50 μM
  effect on Hs.5HT7: lacking any effect
[7]; inhibition of cAMP generation
  potency (IC50) at Hs.5HT7R, lower right quadrant of FIG. 13: supra-μM potency
